{
  "source": "patent US10709704B2",
  "about": "“Treating neural disease with tyrosine kinase inhibitors” (GEORGETOWN UNIVERSITY, priority 2012, dated 2020)",
  "key": {"caspase-3 activation": {"system": "caspase-3 activation", "protocol": "Lentiviral constructs encoding LacZ, or Aβ1-42 were stereotaxically injected 1×106 multiplicity of infection (m.o.i) bilaterally into the CA1 hippocampus of 1 year old C57BL/6 or parkin−/−. A Total of […] lentiviral stocks were delivered at a rate of 0.2 μl/min and. All procedures were approved by the Georgetown University Animal Care and Use Committee (GUACUC).\nAβ and p-Tau enzyme-linked immunosorbent assay (ELISA) using specific p-Tau, Aβ1-40 and Aβ1-42 ELISA and caspase-3 activity were performed according to manufacturer's protocol."}, "[1]": {"system": "parkin and molecular markers of autophagy", "assay": "Parkin and autophagy markers (WB, ELISA), lentiviral Aβ1-42 wild type mice", "format": "in vivo, mouse"}, "[2]": {"system": "human M17 neuroblastoma cells", "assay": "MTT cell viability, M17 cells transfected with Aβ1-42 or LacZ", "format": "cell-based", "settings": "Nilotinib 24 hr", "protocol": "Human neuroblastoma M17 or rat B35 cells were grown in 24 well dishes (Falcon). Transient transfection was performed with 3 μg Aβ1-42 cDNA, or 3 μg LacZ cDNA for 24 hr. […] Cells were harvested 48 hr after transfection.\nParkin levels were measured via ELISA using parkin−/− brain extracts as a specificity control (FIG. 66A)."}, "[3]": {"system": "human Tau, Aβ1-42, α-synuclein", "assay": "M17 cells transfected with Tau cDNA: Tau, Aβ1-42, α-synuclein", "format": "cell-based", "protocol": "Cell culture experiments are referenced below and explained in Burns et al. (Human Molecular Genetics. 2009) and Rebeck et al. (J. Biol. Chem. 2010, 285:7440-7446). Additional details are provided in the brief description of the figures.\nIn other experiments, M17 cells transfected with Tau cDNA were treated with Nilobinib and Tubacin (an HDAC6 inhibitor)."}, "[4]": {"system": "SN Tyrosine hydroxylase (TH) neurons", "assay": "TH neuron stereology and electron microscopy of SN, lentiviral α-Synuclein mice", "format": "in vivo, mouse", "protocol": "Animals were deeply anesthetized with a mixture of Xylazine and Ketamine (1:8), washed with 1× saline for 1 min and then perfused with 4% paraformaldehyde (PFA) for 15-20 min. Brains were quickly dissected out and immediately stored in 4% PFA for 24 h at […], and then transferred to 30% sucrose at […] for 48 h. Tyrosine Hydroxylase (TH) was probed (1:100) with rabbit polyclonal (AB152) antibody (Millipore) and human α-Synuclein was probed (1:100) with mouse monoclonal antibodies (Thermo Scientific) and DAB counterstained.\nThese were applied by a blinded investigator using unbiased stereology analysis (Stereologer, Systems Planning and Analysis, Chester, Md.) to determine the total positive cell counts in 20 cortical fields on at least 10 brain sections (˜400 positive cells per animal) from each animal.\nBrain tissues are fixed in (1:4, v:v) 4% PFA-picric acid solution and […] overnight, then washed 3× in 0.1 M cacodylate buffer and osmicated in 1% osmium tetroxide/1.5% potassium ferrocyanide for 3 h, followed by another 3× wash in distilled water. […] Blocks are sectioned on a Leica ultracut microtome at 95 nm, picked up onto […] formvar-coated copper grids and analyzed using a Philips Technai Spirit transmission EM. […]"}, "[5]": {"system": "Aβ1-42 plaques and intracellular Aβ1-42", "assay": "Plaque and intracellular Aβ1-42 staining, lentiviral Aβ1-42 wild type mice", "format": "in vivo, mouse", "protocol": "Immunohistochemistry was performed on 20 micron-thick 4% paraformaldehyde (PFA) fixed cortical brain sections. Aβ1-42 was probed (1:200) with rabbit polyclonal specific anti-Aβ1-42 antibody (Zymed) that recognizes a.a.1-42, and (1:200) mouse monoclonal antibody (4G8) that recognizes amino acid 17-24 (Covance) and counterstained with DAPI. Parkin was immunoprobed (1:200) with mouse anti-parkin (PRK8) antibody that recognizes amino acid 399-465 (Signet Labs, Dedham, Mass.) and rabbit polyclonal (1:200) anti-parkin (AB5112) antibody that recognizes amino acid 305-622 (Millipore) and counterstained with DAPI. Mouse monoclonal (6E10) antibody (1:100) with DAB were used (Covance) and thioflavin-S was performed according to manufacturer's instructions (Sigma).\nStereological methods were applied by a blinded investigator using unbiased stereology analysis (Stereologer, Systems Planning and Analysis, Chester, Md.) as described in (20,36)."}, "[6]": {"system": "lentiviral Aβ1-42-injected wild type mice", "assay": "Morris water maze, lentiviral Aβ1-42 wild type mice", "format": "in vivo, mouse", "settings": "Nilotinib", "protocol": "All animals were pre-trained (trials) to swim for 90 seconds in a water maze containing a platform submerged in water (invisible) for 4 consecutive days once a day. The pretraining trials “teach” the swimming animals that to “escape”, they must find the hidden platform, and stay on it. The water maze “test” was performed on day 5, (40), when the platform was removed and mice have to swim and find it, thus assessing acquisition and retention. All parameters, including distance travelled to reach platform, speed to get to the platform, latency or time spent on platform, and platform entry were digitally recorded on a computer and analyzed by a blind investigator.\nThe Morris water maze test was performed after 4 days of training trials in which the platform was placed in the SE corner and mice were initially placed in the NW corner of the pool."}, "Aβ1-42 parkin−/− mice": {"system": "Aβ1-42 parkin−/− mice", "assay": "Novel object recognition, Aβ1-42 parkin−/− mice", "format": "in vivo, mouse", "settings": "Aβ1-42 parkin−/− mice with or without Nilotinib", "protocol": "Mice were placed individually in a 22×32×30 cm testing chamber for a 5 min habituation interval and returned to their home cages. Thirty minutes later mice were placed in the testing chamber for 10 min with two identical objects (acquisition session), then returned to their home cages and […] placed back in the testing chamber in the presence with one of the original objects and one novel object of the same size but of a different color and shape (recognition session). Sessions were video recorded. Time spent exploring the objects were scored by blind observer. The recognition index was calculated as (time exploring one of the objects/time exploring both objects)×100 for acquisition session, and (time exploring new object/time exploring both familiar and novel objects)×100 for the recognition session. Statistical calculations to estimate differences between sessions were performed with a pairwise t-test.\nThese experiments were repeated in 1 year old Tg-APP mice and age-matched control (C57BL/6)."}, "[7]": {"settings": "wild type lentiviral Aβ1-42 mice, Nilotinib vs DMSO"}},
  "data": [
    {"molecule": "Cc1cn(-c2cc(NC(=O)c3ccc(C)c(Nc4nccc(-c5cccnc5)n4)c3)cc(C(F)(F)F)c2)cn1", "note": "[Nilotinib]", "values": [
      {"measurement": "increase in caspase-3 activation", "setting": "caspase-3 activation; lentiviral Aβ1-42 parkin−/− mice with Nilotinib (without 180%)", "result": 165, "unit": "%"},
      {"measurement": "caspase-3 activation above control", "setting": "caspase-3 activation; lentiviral Aβ1-42 wild type mice, 10 mg/kg daily 3 weeks (DMSO 165%)", "result": 45, "unit": "% above control"},
      {"measurement": "LC3-II", "setting": "[1]; [7]", "result": "disappearance"},
      {"measurement": "decrease in LC3-B", "setting": "[1]; [7]", "result": 38, "unit": "%"},
      {"measurement": "parkin level (ELISA)", "setting": "[1]; wild type mice and lentiviral Aβ1-42 ± Nilotinib", "result": "increases parkin level"},
      {"measurement": "cell viability (MTT) after Aβ1-42 induced cell death", "setting": "[2]; Aβ1-42 expressing cells", "result": "83 % of control level"},
      {"measurement": "cell death (by MTT)", "setting": "[2]; LacZ cells", "result": "No cell death"},
      {"measurement": "human Aβ1-42", "setting": "[3]", "result": "decrease"},
      {"measurement": "human Tau", "setting": "[3]", "result": "decrease"},
      {"measurement": "α-synuclein", "setting": "[3]", "result": "decrease"},
      {"measurement": "TH+ neurons (by stereology)", "setting": "[4]; lentiviral α-Synuclein mice + Nilotinib", "result": "82 % of LacZ level"},
      {"measurement": "autophagic vacuoles in SN neurons (transmission electron microscopy)", "setting": "[4]; lentiviral α-Synuclein mice, Nilotinib treatment", "result": "appearance of larger AVs"},
      {"measurement": "plaque size", "setting": "[5]; Aβ1-42 wild type mice + Nilotinib (DMSO around 48 μm)", "result": 5, "unit": "μm"},
      {"measurement": "plaque formation", "setting": "[5]; Aβ1-42 wild type mice, Nilotinib daily for 3 weeks", "result": "eliminates plaque formation"},
      {"measurement": "Aβ1-42 positive cells (stereological counting)", "setting": "[5]; Aβ1-42 wild type mice, Nilotinib treated", "result": 5200, "unit": "cells"},
      {"measurement": "intracellular Aβ1-42 accumulation (cortex)", "setting": "[5]; lentiviral Aβ1-42 injected mice, Nilotinib", "result": "eliminated Aβ1-42 accumulation"},
      {"measurement": "time spent in NW quadrant", "setting": "[6]; Aβ1-42-injected wild type mice", "result": "back to the level observed in control mice"},
      {"measurement": "improved time spent in SE compared to DMSO", "setting": "[6]; Aβ1-42 wild type mice", "result": 61, "unit": "%"},
      {"measurement": "improved time spent in SE compared to control", "setting": "[6]; Aβ1-42 wild type mice", "result": 26, "unit": "%"},
      {"measurement": "number of entries into SE (platform entry)", "setting": "[6]; Aβ1-42 wild type mice", "result": "reversed the number of entries back to control"},
      {"measurement": "novel object recognition learning", "setting": "Aβ1-42 parkin−/− mice", "result": "did not learn"}
    ]}
  ]
}
